Earlier results in patent publication US20090011041A1, “Compositions for Correcting Age Related Changes of a Human Endocrine System and Methods for Producing a Pharmaceutical Form Bases on Said Compositions” (priority 2004, published 2009).
Read-outs that look alike come from different tables or passages of the source.

What was measured:
[1] = test system: production of IL-6 by peripheral mononuclears; conditions: dose-dependent manner; p<0.01
[2] = DHEA 50 mg/day, placebo effect less than 10%
IGF-1 level = conditions: elderly patients; 50 mg/day; p<0.01
[3] = for distribution volume: after PO use

Compound	production of IL-6 by peripheral mononuclears [1]	improvement in the physical and mental state, females ([2]; females) [%]	improvement in the physical and mental state, males ([2]; males) [%]	hyperglycemia and hyperinsulinemia (diabetic mice)	IGF-1 level (IGF-1 level)	distribution volume [3] [L]	half-life period ([3]; b32) [h]	half-life elimination period ([3]; b33) [h]	metabolic clearance rate (MCR) ([3]; in vivo) [L/day]	half-life period ([3]; b33) [h]	renal excretion, share of the elimination of DHEA-S and its metabolites ([3]; in vivo)
C[C@]12CC[C@H](O)CC1=CC[C@@H]1[C@@H]2CC[C@]2(C)C(=O)CC[C@@H]12 [DHEA, dehydroepiandrosterone]	inhibit the production of IL-6	84	67	reduces hyperglycemia and hyperinsulinemia	increases the IGF-1 level	17 to 38.5	0.25 to 0.5	0.25 to 0.633	2000		
C[C@]12CC[C@H](OS(=O)(=O)O)CC1=CC[C@@H]1[C@@H]2CC[C@]2(C)C(=O)CC[C@@H]12 [DHEA-S, DHEA-sulfate]	inhibit the production of IL-6					8.5 to 9.3	7 to 10		5 to 20	7 to 22	51-73%
C[C@]12CCC(=O)C=C1CC[C@@H]1[C@@H]2CC[C@]2(C)C(=O)CC[C@@H]12 [androstenedione]	inhibit the production of IL-6										
